Experimental data as given in patent US20160213499A1, “BIODEGRADABLE ENDOPROSTHESES AND METHODS FOR THEIR FABRICATION” (Elixir Medical Corporation, priority 2015, published 2016).

Assay: Pharmacokinetic release profile of novolimus from a stent (FIG. 35)
Format: in vivo

tissue drug concentration (at 90 days): 0.5 ng/mg | drug released (in one month): over 85%
SMILES: CO[C@@H]1C[C@H](C[C@@H](C)[C@@H]2CC(=O)[C@H](C)/C=C(\C)[C@@H](O)[C@@H](OC)C(=O)[C@H](C)C[C@H](C)/C=C/C=C/C=C(\C)[C@@H](O)C[C@@H]3CC[C@@H](C)[C@@](O)(O3)C(=O)C(=O)N3CCCC[C@H]3C(=O)O2)CC[C@H]1O [novolimus, 16-O-desmethyl-rapamycin]
